Reference: US11639329B2, “Lipids for use in lipid nanoparticle formulations” (ACUITAS THERAPEUTICS, INC., priority 2017, dated 2023)

How the values were obtained:
[1] = tested on: luciferase expression in the liver (FLuc mRNA); assay: Luciferase mRNA in vivo evaluation using lipid nanoparticle compositions; set-up: species or system mice (C57BL/6, CD-1); conditions: LNP with FLuc mRNA, tail vein injection, liver 4 hours after administration; for Liver Luc (ng luc/g liver), *dosed at 0.3 mg/kg: dosed at 0.3 mg/kg (footnote *); for Liver Luc @ 0.5 mg/kg (ng luc/g liver): 0.5 mg mRNA/kg
Description: A lipid of structure (I), DSPC, cholesterol and PEG-lipid were solubilized in ethanol at a molar ratio of 50:10:38.5:1.5 or 47.5:10:40.8:1.7. Lipid nanoparticles (LNP) were prepared at a total lipid to mRNA weight ratio of approximately 10:1 to 30:1. Briefly, the mRNA was diluted to 0.2 mg/mL in 10 to 50 mM citrate buffer, pH 4. Syringe pumps were used to mix the ethanolic lipid solution with the mRNA aqueous solution at a ratio of about 1:5 to 1:3 (vol/vol) with total flow rates above 15 mL/min. The ethanol was then removed and the external buffer replaced with PBS by dialysis. Finally, the lipid nanoparticles were filtered through a 0.2 μm pore sterile filter.
Studies were performed in 6-8 week old female C57BL/6 mice (Charles River) 8-10 week old CD-1 (Harlan) mice (Charles River) according to guidelines established by an institutional animal care committee (ACC) and the Canadian Council on Animal Care (CCAC). Varying doses of mRNA-lipid nanoparticle were systemically administered by tail vein injection and animals euthanized at a specific time point (e.g., 4 hours) post-administration. Liver and spleen were collected in pre-weighed tubes, weights determined, immediately snap frozen in liquid nitrogen and stored at −80° C. until processing for analysis.
For liver, approximately 50 mg was dissected for analyses in a 2 mL FastPrep tubes (MP Biomedicals, Solon OH). ¼″ ceramic sphere (MP Biomedicals) was added to each tube and 500 μL of Glo Lysis Buffer—GLB (Promega, Madison Wis.) equilibrated to room temperature was added to liver tissue. Liver tissues were homogenized with the FastPrep24 instrument (MP Biomedicals) at 2×6.0 m/s for 15 seconds. Homogenate was incubated at room temperature for 5 minutes prior to a 1:4 dilution in GLB and assessed using SteadyGlo Luciferase assay system (Promega). Specifically, 50 μL of diluted tissue homogenate was reacted with 50 μL of SteadyGlo substrate, shaken for 10 seconds followed by 5 minute incubation and then quantitated using a CentroXS^3 LB 960 luminometer (Berthold Technologies, Germany). The amount of protein assayed was determined by using the BCA protein assay kit (Pierce, Rockford, Ill.). Relative luminescence units (RLU) were then normalized to total μg protein assayed. To convert RLU to ng luciferase a standard curve was generated with QuantiLum Recombinant Luciferase (Promega).
The FLuc mRNA (L-6107or L-7602) from Trilink Biotechnologies will express a luciferase protein, originally isolated from the firefly, photinus pyralis. FLuc is commonly used in mammalian cell culture to measure both gene expression and cell viability. It emits bioluminescence in the presence of the substrate, luciferin. This capped and polyadenylated mRNA is fully substituted with 5-methylcytidine and pseudouridine.
Compounds of structure (I) were formulated using the following molar ratio: 47.5% cationic lipid/ 10% distearoylphosphatidylcholine (DSPC)/40.8% Cholesterol/1.7% PEG lipid (“PEG-DMA” 2-[2-(ω-methoxy(polyethyleneglycol2000)ethoxy]-N,N-ditetradecylacetamide). Relative activity was determined by measuring luciferase expression in the liver 4 hours following administration via tail vein injection as described in Example 1.
The cationic lipids shown in Table 2 have previously been tested with nucleic acids. For comparative purposes, these lipids were also used to formulate lipid nanoparticles containing the FLue mRNA (L-6107) using an in line mixing method, as described in Example 1 and in PCT/US10/22614, which is hereby incorporated by reference in its entirety. Lipid nanoparticles may be formulated using the following molar ratio: 50% Cationic lipid/10% distearoylphosphatidylcholine (DSPC)/38.5% Cholesterol/1.5% PEG lipid (“PEG-DMG”, i.e., 1-(monomethoxy-polyethyleneglycol)-2,3-dimyristoylglycerol, with an average PEG molecular weight of 2000). In alternate embodiments, cationic lipid, DSPC, cholesterol and PEG-lipid are formulated at a molar ratio of approximately 47.5:10:40.8:1.7. […]

[2] = Determination of pKa of formulated lipids (TNS fluorescence assay in lipid nanoparticles); assay type: physicochemical; conditions: probe TNS (2-(p-toluidino)-6-napthalene sulfonic acid); lipid formulated in LNP (compound/DSPC/cholesterol/PEG-lipid); pH giving half-maximal TNS fluorescence
Excerpt: As described elsewhere, the pKa of formulated lipids is correlated with the effectiveness of LNPs for delivery of nucleic acids (see Jayaraman et al, Angewandte Chemie, International Edition (2012), 51(34), 8529-8533; Semple et al, Nature Biotechnology 28, 172-176 (2010)). In some embodiments, the preferred range of pKa is ˜5 to ˜7. […] Lipid nanoparticles comprising compound of structure (I)/DSPC/cholesterol/PEG-lipid (50/10/38.5/1.5 or 47.5:10:40.8:1.7 mol %) in PBS at a concentration of 0.4 mM total lipid were prepared using the in-line process as described in Example 1. TNS was prepared as a 100 μM stock solution in distilled water. Vesicles were diluted to 24 μM lipid in 2 mL of buffered solutions containing 10 mM HEPES, 10 mM MES, 10 mM ammonium acetate, and 130 mM NaCl, where the pH ranged from 2.5 to 11. An aliquot of the TNS solution was added to give a final concentration of 1 μM and following vortex mixing fluorescence intensity was measured at room temperature in a SLM Aminco Series 2 Luminescence Spectrophotometer using excitation and emission wavelengths of 321 nm and 445 nm. A sigmoidal best fit analysis was applied to the fluorescence data and the pKa was measured as the pH giving rise to half-maximal fluorescence intensity.

SMILES | Liver Luc (ng luc/g liver), *dosed at 0.3 mg/kg [1] | pKa [2] | Liver Luc @ 0.5 mg/kg (ng luc/g liver) [1] [ng luc/g liver]
CCCCCCCCCN(CCO)CCN(CCCCCC(=O)OCC(CCCCCC)CCCCCCCC)CCCCCC(=O)OCC(CCCCCC)CCCCCCCC (centres unmarked) [Compound 1] | 330 ± 70* ng luc/g liver | 5.83 | 
CCCCCCCCCN(CCCO)CCN(CCCCCC(=O)OCC(CCCCCC)CCCCCCCC)CCCCCC(=O)OCC(CCCCCC)CCCCCCCC (centres unmarked) [Compound 2] | 553 ± 291* ng luc/g liver | 5.76 | 
CCCCCCCCC(CCCCCC)COC(=O)CCCCCCCN(CCCCCCCC(=O)OCC(CCCCCC)CCCCCCCC)CCN(CCO)CCCO (centres unmarked) [Compound 3] |  | 7.18 | 
CCCCCCCCC(CCCCCC)COC(=O)CCCCCN(CCCCCC(=O)OCC(CCCCCC)CCCCCCCC)CCN(C)CCO (centres unmarked) [Compound 4] | 50 ± 14* ng luc/g liver | 6.91 | 
CCCCCCCCC(CCCCCC)COC(=O)CCCCCN(CCCCCC(=O)OCC(CCCCCC)CCCCCCCC)CCN(C)CCCCCCCCCO (centres unmarked) [Compound 5] |  | 6.17 | 1597 ± 456
CCCCCCCCC(CCCCCC)COC(=O)CCCCCCCN(CCCCCCCC(=O)OCC(CCCCCC)CCCCCCCC)CCN(CC)CCCO (centres unmarked) [Compound 6] |  | 6.82 | 
CCCCCCCCC(CCCCCC)COC(=O)CCCCCN(CCCCCC(=O)OCC(CCCCCC)CCCCCCCC)CCN(C)CCCCCCO (centres unmarked) [Compound 7] |  | 6.69 | 16 ± 14
CCCCCCC(CCCC)C(=O)OCCCCCCCCCN(CCCCCCCCCOC(=O)C(CCCC)CCCCCC)CCN(C)CCCCCCCCCO (centres unmarked) [Compound 8] |  | 6.08 | 54 ± 10
